Reference: patent US20150182434A1, “COSMETIC USE OF NAPTHOIC ACID DERIVATIVES” (Avon Products, Inc., priority 2013, published 2015)

Target: T1, recombinant human (rh) KLK5 (Homo sapiens, UniProt Q9Y337)
T1 construct: purchased R&D Systems 1108-SE
T1 sequence (Q9Y337 23-293): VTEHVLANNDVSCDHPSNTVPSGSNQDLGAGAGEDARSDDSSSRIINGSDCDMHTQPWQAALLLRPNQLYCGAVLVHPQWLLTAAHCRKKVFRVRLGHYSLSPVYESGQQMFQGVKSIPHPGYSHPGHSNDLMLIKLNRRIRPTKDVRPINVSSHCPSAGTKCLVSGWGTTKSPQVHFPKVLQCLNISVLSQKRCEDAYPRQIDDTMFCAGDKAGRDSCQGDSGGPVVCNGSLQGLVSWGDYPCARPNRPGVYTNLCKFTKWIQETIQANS
Assay: Enzymatic activity of KLK5 (fluorogenic peptide substrate Boc-V-P-R-AMC)
Type: biochemical
Details: FIG. 1; for KLK5 activity compared to that of salicylic acid: rhKLK5, rate of enzyme activity relative to salicylic acid
From the text: In the stratum corneum, skin's outermost layer, cell-to-cell cohesion depends primarily on proteins known as the corneodesmosomes. During skin remodeling and renewal dead cells are shed from the skin surface by the action of native proteases that break down the corneodesmosomes. […] Hypothetically, up-regulation of the activities of these proteases using different active candidates could be utilized to increase the rate of shedding of dead skin, thus providing a natural means for skin exfoliation. To this end, the enzymatic activity of a member of the KLK family, recombinant human (rh) KLK5, was monitored following pre-incubation with actives and measuring the rate of peptide bond cleavage of a synthetic substrate.
Enzymatic activity of KLK5 was measured by incubating recombinant human (rh) KLK5 protease (R&D Systems, Cat No. 1108-SE) with a specific fluorogenic peptide substrate Boc-V-P-R-AMC (R& D Systems, Cat No. ES011). The substrate is conjugated to a quenched fluorescent group. Upon cleavage of the adjacent peptide bond, the fluorescent signal is released, resulting in a measureable emission at […] when excited at 340 nm wavelength. Increase in fluorescence reading indicates an increase in rhKLK5 activity. The test compounds were reacted with recombinant rhKLK5 protease for 60 seconds followed by addition of Boc-V-P-R-AMC Fluorogenic Peptide Substrate. After 60 seconds of incubation, fluorescence was measured at 340 nm (Excitation wavelength) and 485 nm (Emission wavelength) every 1 minute for 7 minutes. Rate (kinetics) of enzyme activity was calculated as follows: Rate of enzyme activity=Change of fluorescent reading (after background correction)/Change of reaction time (min). Percent change of activity due to a test compound was calculated by comparing rate of enzyme activity in the presence of the test compound to that of a control without the test compound and statistical significance was calculated using a t-test. Additionally, the rate of activity of the compounds was compared to that of salicylic acid.

| percentage of KLK5 activity relative to salicylic acid (salicylic acid as the benchmark) [%] | SMILES | KLK5 activity compared to that of salicylic acid |
| --- | --- | --- |
| 100 | O=C(O)c1ccccc1O [salicylic acid] | – |
| – | O=C(O)c1c(O)ccc2ccccc12 [2-hydroxy-1-napthoic acid] | substantially less KLK5 activity than salicylic acid |
| – | O=C(O)c1cc2ccccc2cc1O [3-hydroxy-2-napthoic acid] | potent stimulator of KLK5, as it is increased beyond salicylic acid |
| – | O=C(O)c1ccc2ccccc2c1O [1-hydroxy-2-napthoic acid] | substantially less KLK5 activity than salicylic acid |
